Reference: patent US8362051B2, “Mold-resistant wallboard” (Rohm and Haas Company, priority 2007, dated 2013)

Assays:
Assay type in all cases: cell-based
mold [1] = experiment: ASTM 3273 fungal growth test on paper sheets, biocide added to pulp slurry; set-up: key to ASTM 3273 rating Week 1: 0: 100% mold coverage; 1: 90%; 2: 80%; 3: 70%; 4: 60%; 5: 50%; 6: 40%; 7: 30%; 8: 20%; 9: 10%; 10: no mold growth coverage; 8: 20% mold coverage; 9: 10% mold coverage; 10: no mold growth; key to ASTM 3273 rating Week 2 / ASTM 3273 rating Week 3 / ASTM 3273 rating Week 4: 100% mold coverage; 1: 90% mold coverage; 2: 80% mold coverage; 3: 70% mold coverage; 4: 60% mold coverage; 50% mold coverage; 6: 40% mold coverage; 7: 30% mold coverage; 8: 20% mold coverage; 9: 10% mold coverage; 10: no mold growth; conditions: for ASTM 3273 rating Week 1 / ASTM 3273 rating Week 2 / ASTM 3273 rating Week 3 / ASTM 3273 rating Week 4: average of three sheets
Protocol: (§1) The biocides can be evaluated in the following examples by adding to a 0.4 wt % pulp slurry in water (100% recycle) typically used for gypsum wallboard facing paper. The slurry is filtered through a screen to drain the water from the stock and the resulting paper mat is blotted, couched, and dried to form a paper sheet with a basis weight of approximately 40 lb/1000 ft2. Three sheets per condition are prepared. High Performance Liquid Chromatography (HPLC) is used to determine the amount of biocide present in each sheet. The paper sheets are evaluated for fungal growth via ASTM 3273, currently the industry standard for mold-resistant wallboard, as well as the standard TAPPI T-487 fungal efficacy test.
(§2) The values in Tables 1 and 2 below represent data from samples made substantially according to the preceding protocol. The average concentration of active biocide in the paper and the average test rating based on three paper sheets are shown. Based on tables 1 and 2, approximately 4-4.5 times more DIMTS active was needed in the paper sheet than OIT before no mold growth was observed throughout the entire testing period.
(§3) For ASTM 3273, a 4-week test, the following rating scale applies: • 0—100% mold coverage • 1—90% mold coverage • 2—80% mold coverage • 3—70% mold coverage • 4—60% mold coverage • 5—50% mold coverage • 6—40% mold coverage • 7—30% mold coverage • 8—20% mold coverage • 9—10% mold coverage • 10—no mold growth For TAPPI T-487, a 3-week test, the following rating scale applies: • 0—no mold growth • 1—25% mold coverage • 2—50% mold coverage • 3—75% mold coverage • 4—100% mold coverage

mold [2] = experiment: ASTM-G21 Fungal Resistant Test Method on paper handsheets; set-up: key: 0: None; Traces of growth (<10%); 2: Light growth (10-30%); Medium growth (30-60%); 4: Heavy growth (60-complete coverage); conditions: for Mold Resistance Rating Week 1 A / Mold Resistance Rating Week 2 A: replicate A; for Mold Resistance Rating Week 1 B / Mold Resistance Rating Week 2 B: replicate B
Protocol: Results are compared with paper hand sheets incorporating DIMTS in the same manner, as well as handsheets with no biocide added. Handsheets are formed using a commercial handsheet mold which makes sheets 8×8 inches in area. The weights of the handsheets are 11-12 lbs/1000 ft^2 representing the typical basis weight of just the liner (outer facing plys) of the multi-ply wallboard paper. The 3:1 carbendazim/IPBC blend is added to the paper slurry (0.7 wt %) prior to forming the handsheets. Recycled news print paper is used as the source of fiber for handsheets. High Performance Liquid Chromatography (HPLC) is used to determine the amount of biocide present in each sheet, however, this method is not capable of detecting the levels of IPBC in the handsheets, therefore only carbendazim values are reported in Table 4 as weight of active (mg) per kg of paper. The handsheets are evaluated for fungal resistance using ASTM G21 over a two-week test period. A and B represent replicate analyses of same handsheet in Table 4.

mold [3] = experiment: TAPPI T-487 test on surface-treated paper; set-up: key to TAPPI T-487 rating Week 1 / TAPPI T-487 rating Week 2 / TAPPI T-487 rating Week 3: 100% mold coverage; 1: 90% mold coverage; 2: 80% mold coverage; 3: 70% mold coverage; 4: 60% mold coverage; 50% mold coverage; 6: 40% mold coverage; 7: 30% mold coverage; 8: 20% mold coverage; 9: 10% mold coverage; 10: no mold growth; conditions: surface treatment, average of three sheets
Protocol: The papers of this example were prepared via surface treatment. The values in Table 3 below represent the average concentration of active biocide in the paper and the average […]-487 test rating based on three paper sheets.

mold [4] = experiment: TAPPI T-487 fungal efficacy test on paper sheets, biocide added to pulp slurry; set-up: key: coverage; 8: 20% mold coverage; 9: 10% mold coverage; 10: no mold growth; conditions: average of three sheets
Protocol: as §1, §2, §3

With `Cc1ccc(S(=O)(=O)C(I)I)cc1` [DIMTS, diiodomethyltolylsulfone] the “ASTM 3273 rating Week 1” value (mold [1]; 370 ppm in paper sheet) was 10, the “ASTM 3273 rating Week 2” value (mold [1]; 370 ppm in paper sheet) was 8 (20% mold coverage) and the “ASTM 3273 rating Week 3” value (mold [1]; 370 ppm in paper sheet) was 0 (100% mold coverage). For the same compound, the “ASTM 3273 rating Week 4” value (mold [1]; 370 ppm in paper sheet) was 0 (100% mold coverage), the “ASTM 3273 rating Week 1” value (mold [1]; 660 ppm in paper sheet) was 10 and the “ASTM 3273 rating Week 2” value (mold [1]; 660 ppm in paper sheet) was 8 (20% mold coverage). The “ASTM 3273 rating Week 3” value (mold [1]; 660 ppm in paper sheet) was 7 (30% mold coverage), the “ASTM 3273 rating Week 4” value (mold [1]; 660 ppm in paper sheet) was 6 (40% mold coverage) and the “ASTM 3273 rating Week 1” value (mold [1]; 1272 ppm in paper sheet) was 10. The “ASTM 3273 rating Week 2” value (mold [1]; 1272 ppm in paper sheet) was 10, the “ASTM 3273 rating Week 3” value (mold [1]; 1272 ppm in paper sheet) was 10 and the “ASTM 3273 rating Week 4” value (mold [1]; 1272 ppm in paper sheet) was 10. For the same compound, the “DIMTS active needed in the paper sheet relative to OIT before no mold growth was observed throughout the entire testing period” value (mold [1]; approximately, based on tables 1 and 2 (ASTM 3273 and TAPPI T-487)) was 4-4.5 times, the “Mold Resistance Rating Week 1 A” value (mold [2]; 281 ppm active in handsheet) was 1 (Traces of growth (<10%)) and the “Mold Resistance Rating Week 1 B” value (mold [2]; 281 ppm active in handsheet) was 1 (Traces of growth (<10%)). The “Mold Resistance Rating Week 2 A” value (mold [2]; 281 ppm active in handsheet) was 4 (Heavy growth (60-complete coverage)), the “Mold Resistance Rating Week 2 B” value (mold [2]; 281 ppm active in handsheet) was 4 (Heavy growth (60-complete coverage)) and the “Mold Resistance Rating Week 1 A” value (mold [2]; 297 ppm active in handsheet) was 1 (Traces of growth (<10%)). For the same compound, the “Mold Resistance Rating Week 1 B” value (mold [2]; 297 ppm active in handsheet) was 1 (Traces of growth (<10%)), the “Mold Resistance Rating Week 2 A” value (mold [2]; 297 ppm active in handsheet) was 4 (Heavy growth (60-complete coverage)) and the “Mold Resistance Rating Week 2 B” value (mold [2]; 297 ppm active in handsheet) was 4 (Heavy growth (60-complete coverage)). For the same compound, the “Mold Resistance Rating Week 1 A” value (mold [2]; 354 ppm active in handsheet) was 0, the “Mold Resistance Rating Week 1 B” value (mold [2]; 354 ppm active in handsheet) was 0 and the “Mold Resistance Rating Week 2 A” value (mold [2]; 354 ppm active in handsheet) was 1 (Traces of growth (<10%)). The “Mold Resistance Rating Week 2 B” value (mold [2]; 354 ppm active in handsheet) was 1 (Traces of growth (<10%)), the “Mold Resistance Rating Week 1 A” value (mold [2]; 732 ppm active in handsheet) was 0 and the “Mold Resistance Rating Week 1 B” value (mold [2]; 732 ppm active in handsheet) was 0. For the same compound, the “Mold Resistance Rating Week 2 A” value (mold [2]; 732 ppm active in handsheet) was 0, the “Mold Resistance Rating Week 2 B” value (mold [2]; 732 ppm active in handsheet) was 0 and the “Mold Resistance Rating Week 1 A” value (mold [2]; 748 ppm active in handsheet) was 0. For the same compound, the “Mold Resistance Rating Week 1 B” value (mold [2]; 748 ppm active in handsheet) was 0, the “Mold Resistance Rating Week 2 A” value (mold [2]; 748 ppm active in handsheet) was 0 and the “Mold Resistance Rating Week 2 B” value (mold [2]; 748 ppm active in handsheet) was 0. The “TAPPI T-487 rating Week 1” value (mold [3]; 43 ppm in paper) was 2 (50% mold coverage), the “TAPPI T-487 rating Week 2” value (mold [3]; 43 ppm in paper) was 4 (100% mold coverage) and the “TAPPI T-487 rating Week 3” value (mold [3]; 43 ppm in paper) was 4 (100% mold coverage). The “TAPPI T-487 rating Week 1” value (mold [3]; 563 ppm in paper) was 0, the “TAPPI T-487 rating Week 2” value (mold [3]; 563 ppm in paper) was 0 and the “TAPPI T-487 rating Week 3” value (mold [3]; 563 ppm in paper) was 0. The “TAPPI T-487 rating Week 1” value (mold [3]; 5389 ppm in paper) was 0, the “TAPPI T-487 rating Week 2” value (mold [3]; 5389 ppm in paper) was 0 and the “TAPPI T-487 rating Week 3” value (mold [3]; 5389 ppm in paper) was 0. The “TAPPI T-487 rating Week 1” value (mold [4]; 386 ppm in paper sheet) was 0, the “TAPPI T-487 rating Week 2” value (mold [4]; 386 ppm in paper sheet) was 2 (50% mold coverage) and the “TAPPI T-487 rating Week 3” value (mold [4]; 386 ppm in paper sheet) was 3 (75% mold coverage). The “TAPPI T-487 rating Week 1” value (mold [4]; 553 ppm in paper sheet) was 0, the “TAPPI T-487 rating Week 2” value (mold [4]; 553 ppm in paper sheet) was 2 (50% mold coverage) and the “TAPPI T-487 rating Week 3” value (mold [4]; 553 ppm in paper sheet) was 3 (75% mold coverage). The “TAPPI T-487 rating Week 1” value (mold [4]; 855 ppm in paper sheet) was 0, the “TAPPI T-487 rating Week 2” value (mold [4]; 855 ppm in paper sheet) was 0 and the “TAPPI T-487 rating Week 3” value (mold [4]; 855 ppm in paper sheet) was 0.

In the case of `CCCCCCCCn1sccc1=O` [OIT, octylisothiazolinone], the “ASTM 3273 rating Week 1” value (mold [1]; 113 ppm in paper sheet) is reported as 10, the “ASTM 3273 rating Week 2” value (mold [1]; 113 ppm in paper sheet) is reported as 10 and the “ASTM 3273 rating Week 3” value (mold [1]; 113 ppm in paper sheet) is reported as 10. For the same compound, the “ASTM 3273 rating Week 4” value (mold [1]; 113 ppm in paper sheet) was 10, the “ASTM 3273 rating Week 1” value (mold [1]; 174 ppm in paper sheet) was 10 and the “ASTM 3273 rating Week 2” value (mold [1]; 174 ppm in paper sheet) was 10. The “ASTM 3273 rating Week 3” value (mold [1]; 174 ppm in paper sheet) was 10, the “ASTM 3273 rating Week 4” value (mold [1]; 174 ppm in paper sheet) was 10 and the “ASTM 3273 rating Week 1” value (mold [1]; 283 ppm in paper sheet) was 10. The “ASTM 3273 rating Week 2” value (mold [1]; 283 ppm in paper sheet) was 10, the “ASTM 3273 rating Week 3” value (mold [1]; 283 ppm in paper sheet) was 10 and the “ASTM 3273 rating Week 4” value (mold [1]; 283 ppm in paper sheet) was 10. The “TAPPI T-487 rating Week 1” value (mold [4]; 181 ppm in paper sheet) was 0, the “TAPPI T-487 rating Week 2” value (mold [4]; 181 ppm in paper sheet) was 0 and the “TAPPI T-487 rating Week 3” value (mold [4]; 181 ppm in paper sheet) was 0. The “TAPPI T-487 rating Week 1” value (mold [4]; 309 ppm in paper sheet) was 0, the “TAPPI T-487 rating Week 2” value (mold [4]; 309 ppm in paper sheet) was 0 and the “TAPPI T-487 rating Week 3” value (mold [4]; 309 ppm in paper sheet) was 0. For the same compound, the “TAPPI T-487 rating Week 1” value (mold [4]; 492 ppm in paper sheet) was 0, the “TAPPI T-487 rating Week 2” value (mold [4]; 492 ppm in paper sheet) was 0 and the “TAPPI T-487 rating Week 3” value (mold [4]; 492 ppm in paper sheet) was 0.
